Article PMC8979054 (RSC Advances, 2022)
Read-outs that look alike come from different tables or passages of the source.

Tests used:
XO = conditions: cited from earlier work; for IC50: XO inhibition
xanthine oxidase [1] = molecular target: T1, xanthine oxidase (Bos taurus, UniProt P80457); assay: Fixed-ratio combination analysis on XO; conditions: for EC90: read-out: EC90 dose; for DRI: in techtochrysin + allopurinol combination
xanthine oxidase [2] = molecular target: T1, xanthine oxidase; assay: In vitro xanthine oxidase inhibitory assay; assay type: biochemical, bovine
[3] = Dm (median-effect dose), antilog of x-intercept of median-effect plot, CompuSyn
[4] = EC50 dose, single agent, dose for 50% inhibition of XO activity
[5] = single agent, dose for 10% inhibition of XO activity
[6] = single agent, dose for 30% inhibition of XO activity
[7] = single agent, dose for 70% inhibition of XO activity

T1 sequence (P80457 whole entry): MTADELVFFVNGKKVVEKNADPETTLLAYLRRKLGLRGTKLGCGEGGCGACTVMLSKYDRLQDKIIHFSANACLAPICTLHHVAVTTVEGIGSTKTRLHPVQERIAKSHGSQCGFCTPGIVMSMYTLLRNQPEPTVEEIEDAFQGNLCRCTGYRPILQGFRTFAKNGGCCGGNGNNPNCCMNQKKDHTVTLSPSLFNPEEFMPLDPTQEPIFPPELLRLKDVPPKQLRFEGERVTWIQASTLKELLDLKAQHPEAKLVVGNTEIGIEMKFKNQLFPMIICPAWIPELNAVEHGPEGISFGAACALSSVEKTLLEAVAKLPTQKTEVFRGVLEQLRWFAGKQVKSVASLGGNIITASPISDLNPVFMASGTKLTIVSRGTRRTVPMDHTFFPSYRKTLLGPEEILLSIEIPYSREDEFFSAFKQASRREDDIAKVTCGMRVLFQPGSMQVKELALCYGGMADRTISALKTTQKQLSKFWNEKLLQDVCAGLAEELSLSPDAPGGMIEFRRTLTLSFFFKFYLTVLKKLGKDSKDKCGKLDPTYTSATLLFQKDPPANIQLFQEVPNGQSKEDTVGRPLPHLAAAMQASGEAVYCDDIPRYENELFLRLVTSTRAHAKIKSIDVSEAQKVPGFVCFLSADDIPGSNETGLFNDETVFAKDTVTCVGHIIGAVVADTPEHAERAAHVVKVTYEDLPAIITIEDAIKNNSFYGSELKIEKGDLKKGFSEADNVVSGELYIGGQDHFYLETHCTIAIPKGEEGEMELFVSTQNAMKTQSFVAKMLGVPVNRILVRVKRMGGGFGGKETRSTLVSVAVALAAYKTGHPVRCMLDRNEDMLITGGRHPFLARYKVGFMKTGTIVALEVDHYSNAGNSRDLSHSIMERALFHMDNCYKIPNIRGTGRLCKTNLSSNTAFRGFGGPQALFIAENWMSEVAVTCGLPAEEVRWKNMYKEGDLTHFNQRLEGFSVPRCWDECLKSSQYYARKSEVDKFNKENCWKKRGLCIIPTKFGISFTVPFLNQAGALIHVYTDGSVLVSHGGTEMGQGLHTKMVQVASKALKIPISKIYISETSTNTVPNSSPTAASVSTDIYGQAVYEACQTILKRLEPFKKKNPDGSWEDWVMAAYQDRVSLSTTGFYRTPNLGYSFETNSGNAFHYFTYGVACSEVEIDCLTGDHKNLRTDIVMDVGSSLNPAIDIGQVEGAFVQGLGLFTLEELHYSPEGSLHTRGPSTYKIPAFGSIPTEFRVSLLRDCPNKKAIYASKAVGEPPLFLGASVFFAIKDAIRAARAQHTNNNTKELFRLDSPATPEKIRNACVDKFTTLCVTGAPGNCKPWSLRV

Oc1ncnc2[nH]ncc12 [Allopurinol, allopurinol, reference compound]
IC50 (XO): 13200 nM
EC10 dose (xanthine oxidase [1]): 180 nM
EC30 dose (xanthine oxidase [1]): 420 nM
EC70 dose (xanthine oxidase [1]): 1840 nM
m (slope of the median-effect plot) (xanthine oxidase [1]): 1.44
EC90 (xanthine oxidase [1]): 4050 nM

O=c1cc(-c2ccc(O)cc2)oc2cc(O)cc(O)c12 [Apigenin, apigenin]
IC50 (XO): 6330 nM
type of XO inhibition (XO): competitive

Cc1nc(-c2ccc(OCC(C)C)c(C#N)c2)sc1C(=O)O [Febuxostat, febuxostat, reference compound]
EC10 dose (xanthine oxidase [1]): 5 nM
EC30 dose (xanthine oxidase [1]): 15 nM
EC70 dose (xanthine oxidase [1]): 40 nM
m (slope of the median-effect plot) (xanthine oxidase [1]): 1.57
EC90 (xanthine oxidase [1]): 120 nM

O=c1c(O)c(-c2ccccc2)oc2cc(O)cc(O)c12 [Galangin, galangin]
type of XO inhibition (XO): competitive

O=c1cc(-c2ccc(O)c(O)c2)oc2cc(O)cc(O)c12 [Luteolin, luteolin]
IC50 (xanthine oxidase [2]): 1680 nM
IC50 (XO): 8210 nM
type of XO inhibition (XO): competitive

O=C1c2c(O)cc(O)cc2O[C@H](c2ccccc2)[C@H]1O [Pinobanksin, pinobanksin]
type of XO inhibition (XO): competitive

O=c1c(O)c(-c2ccc(O)c(O)c2)oc2cc(O)cc(O)c12 [Quercetin, quercetin]
IC50 (XO): 2920 nM
type of XO inhibition (XO): mixed-type

O=C(/C=C/c1ccc(O)c(O)c1)O[C@H](Cc1ccc(O)c(O)c1)C(=O)O [Rosmarinic acid, rosmarinic acid]
IC50 (xanthine oxidase [2]): 970 nM
m (slope of the median-effect plot) (xanthine oxidase [1]; CompuSyn): 1.78
EC50 (xanthine oxidase [1]; [3]): 1040 nM
EC50 (xanthine oxidase [1]; [4]): 970 nM
Dose of each drug alone required for the same effect (xanthine oxidase [1]; Fa 16%, rosmarinic acid/allopurinol analysis): 0.32 µM
Dose of each drug alone required for the same effect (xanthine oxidase [1]; Fa 34%, rosmarinic acid/allopurinol analysis): 0.72 µM
Dose of each drug alone required for the same effect (xanthine oxidase [1]; Fa 42%, rosmarinic acid/febuxostat analysis): 0.87 µM
Dose of each drug alone required for the same effect (xanthine oxidase [1]; Fa 66%, rosmarinic acid/febuxostat analysis): 1.78 µM
Dose of each drug alone required for the same effect (xanthine oxidase [1]; Fa 69%, rosmarinic acid/allopurinol analysis): 2.06 µM
Dose of each drug alone required for the same effect (xanthine oxidase [1]; Fa 74%, rosmarinic acid/febuxostat analysis): 2.35 µM
Dose of each drug alone required for the same effect (xanthine oxidase [1]; Fa 82%, rosmarinic acid/febuxostat analysis): 3.42 µM
Dose of each drug alone required for the same effect (xanthine oxidase [1]; Fa 92%, rosmarinic acid/febuxostat analysis): 6.21 µM
Dose of each drug alone required for the same effect (xanthine oxidase [1]; Fa 93%, rosmarinic acid/allopurinol analysis): 8.35 µM
Dose of each drug alone required for the same effect (xanthine oxidase [1]; Fa 98%, rosmarinic acid/allopurinol analysis): 21.32 µM
EC90 (xanthine oxidase [1]): 5220 nM
EC10 dose (xanthine oxidase [1]; [5]): 260 nM
EC30 dose (xanthine oxidase [1]; [6]): 480 nM
EC70 dose (xanthine oxidase [1]; [7]): 2440 nM

COc1cc(O)c2c(=O)cc(-c3ccccc3)oc2c1 [Techtochrysin, techtochrysin]
IC50 (xanthine oxidase [2]): 84 nM
fold enhancement in XO inhibitory activity compared with allopurinol (xanthine oxidase [2]; from IC50 values of Table 5): 10 folds
m (slope of the median-effect plot) (xanthine oxidase [1]; CompuSyn): 1.73
EC50 (xanthine oxidase [1]; [3]): 81 nM
EC50 (xanthine oxidase [1]; [4]): 84 nM
Dose of each drug alone required for the same effect (xanthine oxidase [1]; Fa 19%, techtochrysin/allopurinol analysis): 0.031 µM
Dose of each drug alone required for the same effect (xanthine oxidase [1]; Fa 35%, techtochrysin/allopurinol analysis): 0.064 µM
Dose of each drug alone required for the same effect (xanthine oxidase [1]; Fa 53%, techtochrysin/febuxostat analysis): 0.11 µM
Dose of each drug alone required for the same effect (xanthine oxidase [1]; Fa 57%, techtochrysin/allopurinol analysis): 0.15 µM
Dose of each drug alone required for the same effect (xanthine oxidase [1]; Fa 69%, techtochrysin/febuxostat analysis): 0.20 µM
Dose of each drug alone required for the same effect (xanthine oxidase [1]; Fa 75%, techtochrysin/febuxostat analysis): 0.25 µM
Dose of each drug alone required for the same effect (xanthine oxidase [1]; Fa 84%, techtochrysin/febuxostat analysis): 0.39 µM
Dose of each drug alone required for the same effect (xanthine oxidase [1]; Fa 91%, techtochrysin/allopurinol analysis): 0.98 µM
Dose of each drug alone required for the same effect (xanthine oxidase [1]; Fa 94%, techtochrysin/febuxostat analysis): 0.96 µM
Dose of each drug alone required for the same effect (xanthine oxidase [1]; Fa 97%, techtochrysin/allopurinol analysis): 3.19 µM
DRI (xanthine oxidase [1]; Fa […]% (70% effect level doses)): 3.51 fold
DRI (xanthine oxidase [1]; Fa […]% (90% effect level doses)): 3.63 fold
EC90 (xanthine oxidase [1]): 880 nM
EC10 dose (xanthine oxidase [1]; [5]): 24 nM
EC30 dose (xanthine oxidase [1]; [6]): 46 nM
EC70 dose (xanthine oxidase [1]; [7]): 280 nM
